{"source": "patent US9538774B2", "about": "“Method of feeding livestock to improve carcass characteristics” (Value-Added Science & Technology, LLC., priority 2012, dated 2017)", "key": {"[1]": {"system": "commercial finishing pigs", "assay": "Example 2 feeding study: CPFA with and without ractopamine in a 40% DDGS diet", "assay_type": "in vivo", "protocol": "A second study was conducted to evaluate the effects of supplementation of CPFA, with and without ractopamine, in a diet containing a high level (40%) of DDGS, on growth performance, carcass characteristics, meat and fat quality in commercial finishing pigs. The experimental diets over a six-week feeding period were a control diet without CPFA and a diet containing 0.0375% CPFA for six weeks; then for the last three weeks a diet was fed that included ractopamine at 4.5 grams per ton for each of the control and CPFA diets. (See FIG. 4). CPFA was added to replace choice white grease in the control diet. As discussed below, no treatment effects on growth performance were observed nor for HCW, dressing percentage or loin muscle, ultimate pH, color or marbling.\nPig body weight (BW) on a pen basis was measured initially and at the end of weeks 3 and 6 to calculate average daily gain (ADG). On each weigh day, feed disappearance was measured to calculate average daily feed intake (ADFI) of pigs on pen basis. Pen ADG and ADFI were, in turn, used to calculate feed conversion ratio (F:G).\nPigs were all harvested on the same day and also weighed individually one day before harvest to obtain a final live BW. HCW was measured on carcasses immediately after harvest. Live BW and HCW of pigs were used to calculate dressing percentage using the following equation: dressing %=(HCW/live BW)×100. Backfat (BF) and loin depth (LD) were measured between the 3rd and 4th rib on each carcass using Fat-O-Meater (Generation II). Percentage of fat-free carcass lean was calculated by Fat-O-Meater using the values of backfat depth and loin depth.\nOne barrow and one gilt from each pen weighing closest to the mean BW of their pen were selected for evaluation of meat and belly fat quality. Twenty-four hours after carcasses were chilled at 4° C., pH of loin muscle (LM) was measured at the 10th rib using a pH meter. The pH meter was calibrated at the temperature of the LM with pH 4 and 7 buffers. After pH measurement, carcasses were fabricated. Loin muscle samples at the 10th rib were collected for evaluation of meat quality.\nEach LM sample was separated into two equal halves, and vacuum-packaged and frozen at −20° C. until analysis. One section of LM sample was measured for Minolta color (L*: lightness; a*: redness; b*: yellowness), loin purge, chop purge, and Instron force (a measurement correlated with tenderness and chewiness). Japanese color score (1=extremely pale to 6=extremely dark; NPPC, 2000) and marbling score (1=1% intramuscular fat to 10=10% intramuscular fat; NPPC, 2000) were also determined by trained panelists.\nThe other section of the LM sample was used for sensory evaluation. Sensory assessment was performed according to the procedure described by the American Meat Science Association (1995). Samples of LM were thawed at 4° C. overnight and cut into chops approximately 1 inch thick. The chops were weighed before and immediately after cooking to determine cooking loss. After cooking, trained panelists evaluated chops for juiciness, tenderness, chewiness, flavor and off-flavor using a 10-point scale (1=extremely dry, tough, not chewy, none, or none, to 10=extremely juicy, tender, chewy, intense, or intense, respectively). […]\nTo determine the CPFA residue in carcass fat, each of 6 (3 barrows, 3 gilts) belly fat samples from the third section were randomly selected in control and experimental treatments. Samples were sent for analysis of individual CPFA using HPLC according to the method described by Wood (1986).\nAll data were analyzed using the MIXED procedure of SAS Inst. Inc. (Cary, N.C.). Pen was used as the experimental unit for all responses. The statistical model included the fixed effects of CPFA, ractopamine, CPFA×ractopamine interactions, and random effect of block. Live BW before harvest and sex were used as the covariates in analysis of carcass characteristics, meat and fat quality, if the effects of these covariates were significant (P<0.05). […]"}, "[2]": {"system": "swine", "conditions": "cited from earlier work"}, "[3]": {"conditions": "40% DDGS diet, CPFA 0.0375% six weeks, ractopamine 4.5 grams per ton last three weeks"}, "[4]": {"conditions": "loin muscle, ractopamine 4.5 grams/ton"}, "[5]": {"conditions": "ractopamine 4.5 grams per ton last three weeks"}, "[6]": {"conditions": "sensory panel, 10-point scale, each additive alone"}, "[7]": {"conditions": "sensory panel, ractopamine 4.5 grams/ton"}, "[8]": {"conditions": "10 or 20 ppm for 25 to 41 days pre-slaughter (Carr et. al., 2005)"}, "[9]": {"conditions": "10 ppm for 28 days (Stoller et. al., 2003)"}, "[10]": {"conditions": "10 ppm for 35 days prior to slaughter (Aalhus, et. al., 1990)"}}, "note": "“Also recorded” adds a separate entry of the source."}
{"compound": "CC(CCc1ccc(O)cc1)NCC(O)c1ccc(O)cc1", "note": "(centres unmarked) [ractopamine]", "values": [{"measurement": "average daily feed intake (ADFI)", "setting": "[1]; [3]", "result": "affected"}, {"measurement": "average daily gain (ADG)", "setting": "[1]; [3]", "result": "affected; also recorded: statistically significant positive effects"}, {"measurement": "feed conversion ratio (F:G)", "setting": "[1]; [3]", "result": "statistically significant positive effects"}, {"measurement": "weight at harvest (final BW)", "setting": "[1]; [3]", "result": "affected; also recorded: statistically significant positive effects"}, {"measurement": "Instron force of LM samples", "setting": "[1]; loin muscle, CPFA 0.0375% six weeks, ractopamine 4.5 grams/ton", "result": "did affect; also recorded: increase"}, {"measurement": "lightness of LM", "setting": "[1]; [4]", "result": "did affect"}, {"measurement": "redness (Minolta a*) of LM", "setting": "[1]; [4]", "result": "did affect; also recorded: reductions"}, {"measurement": "yellowness (Minolta b*) of LM", "setting": "[1]; [4]", "result": "did affect; also recorded: reductions"}, {"measurement": "back fat", "setting": "[1]; [5]", "result": "reduction"}, {"measurement": "increase of the measure of carcass lean", "setting": "[1]; [5]", "result": 2, "unit": "%"}, {"measurement": "loin depth", "setting": "[1]; [5]", "result": "increase"}, {"measurement": "carcass lean %", "setting": "[1]; ractopamine 4.5 grams/ton, effect in words", "result": "statistically significant positive effects"}, {"measurement": "juiciness score", "setting": "[1]; [6]", "result": "Neither CPFA nor ractopamine alone affected"}, {"measurement": "off-flavor score", "setting": "[1]; [6]", "result": "Neither CPFA nor ractopamine alone affected"}, {"measurement": "chewiness", "setting": "[1]; [7]", "result": "increased"}, {"measurement": "flavor score", "setting": "[1]; [7]", "result": "reduction"}, {"measurement": "tenderness", "setting": "[1]; [7]", "result": "reduced"}, {"measurement": "color scores", "setting": "[2]; [8]", "result": "poorer"}, {"measurement": "flavor scores", "setting": "[2]; [8]", "result": "reduced"}, {"measurement": "tenderness", "setting": "[2]; [8]", "result": "reduced"}, {"measurement": "Instron force of loin muscle", "setting": "[2]; [9]", "result": "increased"}, {"measurement": "chewiness score", "setting": "[2]; [9]", "result": "increased"}, {"measurement": "color score", "setting": "[2]; [9]", "result": "reduced"}, {"measurement": "tenderness score", "setting": "[2]; [9]", "result": "reduced"}, {"measurement": "hardness of fat samples taken from the loin", "setting": "[2]; [10]", "result": "reduced"}, {"measurement": "sheer force of loin muscle", "setting": "[2]; [10]", "result": "increased"}]}
